Experiments:
[1] = target: FASN Keto-reductase Domain (hFASN enzyme, full length) (Homo sapiens (Human), UniProt P49327); assay: Fatty Acid Synthase Keto-reductase Domain (FASN KR) Inhibition; format: biochemical; details: NADPH oxidation at 340 nm, ethyl acetoacetate substrate
Method: After 20 minutes incubation at room temperature the plate was measured again (T2).
The decrease in absorbance was calculated as (Absorbance before incubation T1)−(Absorbance following incubation T2).
(§1) Raw data generated by the instrument were normalized to % Controlmin values, which were calculated as: % Controlmin=100*(x−mLC)/(mHC−mLC)
(§2) where mLC and mHC were the means of the low control wells and high control wells on the plate, after manual exclusion of outliers. A plot of Controlmin versus test compound concentration was fitted to a 4-parameter logistic curve using a non-linear least squares regression method.

[2] = target: hFASN enzyme (full length) (Homo sapiens (Human), UniProt P49327); assay: Fatty Acid Synthase (FASN) Inhibition Scintillation Proximity Assay; format: biochemical; details: 3H-acetyl-CoA and malonyl-CoA substrates, SPA, mean if tested more than once
Sequence of hFASN enzyme (full length) (P49327 whole entry, the tested form may be a part): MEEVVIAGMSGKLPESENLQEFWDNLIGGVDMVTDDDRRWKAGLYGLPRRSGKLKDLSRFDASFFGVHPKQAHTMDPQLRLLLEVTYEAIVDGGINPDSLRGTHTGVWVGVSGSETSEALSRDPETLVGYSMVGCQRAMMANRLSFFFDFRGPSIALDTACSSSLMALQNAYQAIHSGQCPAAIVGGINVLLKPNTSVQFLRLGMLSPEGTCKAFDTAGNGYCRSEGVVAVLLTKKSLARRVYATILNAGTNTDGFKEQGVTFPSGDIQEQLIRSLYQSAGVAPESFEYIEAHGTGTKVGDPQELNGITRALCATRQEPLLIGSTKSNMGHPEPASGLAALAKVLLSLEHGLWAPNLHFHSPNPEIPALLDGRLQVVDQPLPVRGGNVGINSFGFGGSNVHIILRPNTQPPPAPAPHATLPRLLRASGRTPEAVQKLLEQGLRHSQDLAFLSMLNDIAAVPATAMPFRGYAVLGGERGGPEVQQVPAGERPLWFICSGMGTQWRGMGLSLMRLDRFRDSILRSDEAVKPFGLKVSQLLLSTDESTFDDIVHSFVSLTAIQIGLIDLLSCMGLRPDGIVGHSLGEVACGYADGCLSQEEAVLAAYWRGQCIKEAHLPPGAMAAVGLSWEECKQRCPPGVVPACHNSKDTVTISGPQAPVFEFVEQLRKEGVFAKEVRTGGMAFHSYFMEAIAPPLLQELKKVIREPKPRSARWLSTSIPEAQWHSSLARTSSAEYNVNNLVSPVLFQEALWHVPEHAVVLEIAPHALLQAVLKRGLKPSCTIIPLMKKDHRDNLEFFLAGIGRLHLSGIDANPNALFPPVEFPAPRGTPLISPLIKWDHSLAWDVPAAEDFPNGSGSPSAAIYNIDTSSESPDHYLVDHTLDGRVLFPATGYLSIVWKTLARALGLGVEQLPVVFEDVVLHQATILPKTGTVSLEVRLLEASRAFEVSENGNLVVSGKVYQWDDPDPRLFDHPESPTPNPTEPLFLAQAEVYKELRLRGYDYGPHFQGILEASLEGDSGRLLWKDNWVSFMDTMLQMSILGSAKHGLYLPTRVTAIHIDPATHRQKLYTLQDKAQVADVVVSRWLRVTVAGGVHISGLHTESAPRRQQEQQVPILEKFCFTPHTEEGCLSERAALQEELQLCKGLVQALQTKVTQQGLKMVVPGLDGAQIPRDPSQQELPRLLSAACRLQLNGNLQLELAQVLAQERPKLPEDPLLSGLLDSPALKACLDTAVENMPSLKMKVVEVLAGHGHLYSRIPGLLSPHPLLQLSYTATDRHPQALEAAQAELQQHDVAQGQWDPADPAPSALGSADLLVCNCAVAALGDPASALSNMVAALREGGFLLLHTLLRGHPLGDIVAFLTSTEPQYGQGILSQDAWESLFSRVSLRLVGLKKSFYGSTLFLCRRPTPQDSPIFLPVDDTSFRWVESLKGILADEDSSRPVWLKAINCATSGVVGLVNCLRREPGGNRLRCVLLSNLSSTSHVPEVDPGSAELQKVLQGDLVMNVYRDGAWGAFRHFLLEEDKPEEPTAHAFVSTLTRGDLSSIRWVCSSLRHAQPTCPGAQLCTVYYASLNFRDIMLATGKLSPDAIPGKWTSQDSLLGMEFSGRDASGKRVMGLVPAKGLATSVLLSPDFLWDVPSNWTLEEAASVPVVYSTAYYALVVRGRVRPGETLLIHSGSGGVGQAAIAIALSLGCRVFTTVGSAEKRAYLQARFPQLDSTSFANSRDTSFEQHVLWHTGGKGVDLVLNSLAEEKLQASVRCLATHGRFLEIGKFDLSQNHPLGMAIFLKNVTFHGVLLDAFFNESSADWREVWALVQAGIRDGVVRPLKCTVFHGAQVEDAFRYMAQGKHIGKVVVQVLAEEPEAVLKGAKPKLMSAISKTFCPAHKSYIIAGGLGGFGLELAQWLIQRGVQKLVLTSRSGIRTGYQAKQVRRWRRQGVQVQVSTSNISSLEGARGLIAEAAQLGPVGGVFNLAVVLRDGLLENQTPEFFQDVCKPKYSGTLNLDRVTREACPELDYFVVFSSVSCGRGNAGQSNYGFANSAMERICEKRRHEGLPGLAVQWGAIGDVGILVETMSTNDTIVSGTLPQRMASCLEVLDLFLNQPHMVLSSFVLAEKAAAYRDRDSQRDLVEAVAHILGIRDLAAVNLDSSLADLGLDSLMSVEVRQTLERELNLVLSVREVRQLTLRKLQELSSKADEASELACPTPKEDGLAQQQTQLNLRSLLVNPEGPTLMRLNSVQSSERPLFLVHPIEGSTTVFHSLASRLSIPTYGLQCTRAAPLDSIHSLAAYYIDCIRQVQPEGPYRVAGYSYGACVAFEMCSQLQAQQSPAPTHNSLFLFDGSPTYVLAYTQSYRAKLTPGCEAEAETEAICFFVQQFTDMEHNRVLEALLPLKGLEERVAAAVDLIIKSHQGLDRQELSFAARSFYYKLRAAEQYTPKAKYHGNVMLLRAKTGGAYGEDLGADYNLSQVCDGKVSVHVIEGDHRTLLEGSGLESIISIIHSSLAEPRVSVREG
Method: In this assay, inhibition of FASN activity is measured using ^3H-acetyl-CoA and malonyl-CoA as substrates. ^3H-Acetyl CoA is converted to ^3H-palmitate through a series of reactions by the FASN protein, which contains 7 functional domains and carries out 7 enzymatic reactions to ultimately produce ^3H-palmitate. The assay principle is based upon the fact that ^3H-acetyl-CoA is hydrophilic and the end product, ^3H-palmitate is hydrophobic.
10 μL assay buffer (100 mM KH2PO4 pH 7.5, 1 mM DTT) (20 μL in blanks) was added to a 384-well white Opti Plate plate (Perkin Elmer). 0.9 μL test compound (at concentrations of 30 μM, 10 μM, 3 μM, 1 μM, 0.30 μM, 0.10 μM, 0.03 μM and 0.01 μM)/DMSO and 10 μL hFASN enzyme (full length, 300 ng, purified in house) or 10 μL assay buffer was added to the wells. […] The reaction was stopped by adding 20 μL Streptavidin coupled imaging beads (25 mg/ml). After incubation for 30 minutes at room temperature in the dark, the 384 well plate was centrifuged at 1500 rpm for 3 minutes and was measured after at least 24 hrs by the LEADseeker™, measuring emission using a 610±20 nm pass filter.
as §1, §2

Sequence of FASN Keto-reductase Domain (hFASN enzyme, full length) (P49327 whole entry, the tested form may be a part): as above

Row | SMILES | FASN Keto-reductase Domain pIC50 [1] | Human FASN pIC50 [2] | IC50 ([1]; read-out: FASN Keto-reductase Domain pIC50 (converted)) [nM] | IC50 ([2]; read-out: Human FASN pIC50 (converted)) [nM]
1 | CC1(C)N=C(c2ccc(-c3cnc4ccccc4c3)cc2)N(C[C@@H]2CCN(C(=O)C3CC3)C2)C1=O [Compound 25, (R)-1-((1-(cyclopropanecarbonyl)pyrrolidin-3-yl)methyl)-4,4-dimethyl-2-(4-(quinolin-3-yl)phenyl)-1H-imidazol-5(4H)-one] | 6.17 | 6.15 |  | 
2 | CC1(C)N=C(c2ccc(-c3c[nH]c4ccccc34)cc2)N(C[C@@H]2CCN(C(=O)C3CC3)C2)C1=O [Compound 65, (R)-2-(4-(1H-indol-3-yl)phenyl)-1-((1-(cyclopropanecarbonyl)pyrrolidin-3-yl)methyl)-4,4-dimethyl-1H-imidazol-5(4H)-one] | 6.14 | 6.64 |  | 
3 | Cn1ncc2cc(-c3ccc(C4=NC(C)(C)C(=O)N4C[C@@H]4CCN(C(=O)C5(C)CC5)C4)c(F)c3)ccc21 [Compound 73, (R)-2-(2-fluoro-4-(1-methyl-1H-indazol-5-yl)phenyl)-4,4-dimethyl-1-((1-(1-methylcyclopropanecarbonyl)pyrrolidin-3-yl)methyl)-1H-imidazol-5(4H)-one] | 7.17 | 7.18 |  | 
4 | Cn1cc(-c2ccc(-c3ccc(C4=NC(C)(C)C(=O)N4CC4CN(C(=O)C5CC5)C4)cc3)cc2)cn1 [Compound 17, 1-((1-(cyclopropanecarbonyl)azetidin-3-yl)methyl)-4,4-dimethyl-2-(4′-(1-methyl-1H-pyrazol-4-yl)-[1,1′-biphenyl]-4-yl)-1H-imidazol-5(4H)-one] | 5.57 | 6.26 |  | 
5 | CC1(C)N=C(c2ccc(-c3ccc4cccnc4c3)cc2)N(C[C@@H]2CCN(C(=O)C3CC3)C2)C1=O [Compound 23, (R)-1-((1-(cyclopropanecarbonyl)pyrrolidin-3-yl)methyl)-4,4-dimethyl-2-(4-(quinolin-7-yl)phenyl)-1H-imidazol-5(4H)-one] | 7.25 | 7.25 |  | 
6 | CC1(c2ccccc2)N=C(c2ccc(-c3ccc4[nH]ccc4c3)cc2)N(C[C@@H]2CCN(C(=O)C3CC3)C2)C1=O (mixture of isomers) [Compound 7, (4RS)-2-(4-(1H-Indol-5-yl)phenyl)-1-(((R)-1-(cyclopropanecarbonyl)pyrrolidin-3-yl)methyl)-4-methyl-4-phenyl-1H-imidazol-5(4H)-one] |  |  | 129 | 72.4
7 | CC1(C)N=C(c2ccc(-c3ccc4cncnc4c3)cc2)N(C[C@@H]2CCN(C(=O)C3CC3)C2)C1=O [Compound 42, (R)-1-((1-(cyclopropanecarbonyl)pyrrolidin-3-yl)methyl)-4,4-dimethyl-2-(4-(quinazolin-7-yl)phenyl)-1H-imidazol-5(4H)-one] | 6.32 | 6.65 |  | 
8 | Cc1cc(-c2ccc3c(cnn3C)c2)ccc1C1=NC(C)(C)C(=O)N1CC1CN(C(=O)C2(C)CC2)C1 [Compound 77, 4,4-dimethyl-2-(2-methyl-4-(1-methyl-1H-indazol-5-yl)phenyl)-1-((1-(1-methylcyclopropanecarbonyl)azetidin-3-yl)methyl)-1H-imidazol-5(4H)-one] | 6.44 | 6.82 |  | 
9 | Cc1cc(-c2ccc(-c3cnn(C)c3)cc2)ccc1C1=NC(C)(C)C(=O)N1CC1CN(C(=O)C2(C)CC2)C1 [Compound 87, 4,4-dimethyl-2-(3-methyl-4′-(1-methyl-1H-pyrazol-4-yl)-[1,1′-biphenyl]-4-yl)-1-((1-(1-methylcyclopropanecarbonyl)azetidin-3-yl)methyl)-1H-imidazol-5(4H)-one] | 7.06 | 7.12 |  | 
10 | Cc1cc(-c2ccc3c(cnn3C)c2)ccc1C1=NC(C)(C)C(=O)N1C[C@@H]1CCN(C(=O)C2(C)CC2)C1 [Compound 80, (R)-4,4-dimethyl-2-(2-methyl-4-(1-methyl-1H-indazol-5-yl)phenyl)-1-((1-(1-methylcyclopropanecarbonyl)pyrrolidin-3-yl)methyl)-1H-imidazol-5(4H)-one] | 6.96 | 7.20 |  | 
11 | CC1(C)N=C(c2ccc(-c3c[nH]c4ccccc34)cc2F)N(CC2CN(C(=O)C3CC3)C2)C1=O [Compound 62, 1-((1-(cyclopropanecarbonyl)azetidin-3-yl)methyl)-2-(2-fluoro-4-(1H-indol-3-yl)phenyl)-4,4-dimethyl-1H-imidazol-5(4H)-one] | 6.26 | 6.69 |  | 
12 | CC1(C)N=C(c2ccc(-c3ccc(-c4ccncc4)cc3)cc2)N(CC2CN(C(=O)C3CC3)C2)C1=O [Compound 26, 1-((1-(cyclopropanecarbonyl)azetidin-3-yl)methyl)-4,4-dimethyl-2-(4′-(pyridin-4-yl)-[1,1′-biphenyl]-4-yl)-1H-imidazol-5(4H)-one] | 6.08 | ~6.22 |  | 
13 | CC1(C)N=C(c2ccc(-c3ccc4cccnc4c3)cc2F)N(CC2CN(C(=O)C3CC3)C2)C1=O [Compound 39, 1-((1-(cyclopropanecarbonyl)azetidin-3-yl)methyl)-2-(2-fluoro-4-(quinolin-7-yl)phenyl)-4,4-dimethyl-1H-imidazol-5(4H)-one] | 6.81 | 7.05 |  | 
14 | CC1(C)N=C(c2ccc(-c3ccc(-c4ccncc4)cc3)cc2F)N(C[C@@H]2CCN(C(=O)C3CC3)C2)C1=O [Compound 46, (R)-1-((1-(cyclopropanecarbonyl)pyrrolidin-3-yl)methyl)-2-(3-fluoro-4′-(pyridin-4-yl)-[1,1′-biphenyl]-4-yl)-4,4-dimethyl-1H-imidazol-5(4H)-one] | 6.90 | 7.28 |  | 
15 | CC1(C)N=C(c2ccc(-c3ccc4cnccc4c3)cc2)N(CC2CN(C(=O)C3CC3)C2)C1=O [Compound 27, 1-((1-(cyclopropanecarbonyl)azetidin-3-yl)methyl)-2-(4-(isoquinolin-6-yl)phenyl)-4,4-dimethyl-1H-imidazol-5(4H)-one] | 6.41 | 6.72 |  | 
16 | Cn1ncc2cc(-c3ccc(C4=NC(C)(C)C(=O)N4CC4CN(C(=O)C5CC5)C4)c(F)c3)ccc21 [Compound 32, 1-((1-(cyclopropanecarbonyl)azetidin-3-yl)methyl)-2-(2-fluoro-4-(1-methyl-1H-indazol-5-yl)phenyl)-4,4-dimethyl-1H-imidazol-5(4H)-one] | 5.86 | 6.29 |  | 
17 | CC1(C)N=C(c2ccc(-c3ccc4cc(F)ccc4c3)cc2F)N(CC2CN(C(=O)C3(O)CC3)C2)C1=O [Compound 79, 2-(2-fluoro-4-(6-fluoronaphthalen-2-yl)phenyl)-1-((1-(1-hydroxycyclopropanecarbonyl)azetidin-3-yl)methyl)-4,4-dimethyl-1H-imidazol-5(4H)-one] | 6.92 | 7.52 |  | 
18 | CC1(C)N=C(c2ccc(-c3ccc(-c4ccncc4)cc3)cc2)N(C[C@@H]2CCN(C(=O)C3CC3)C2)C1=O [Compound 15, (R)-1-((1-(cyclopropanecarbonyl)pyrrolidin-3-yl)methyl)-4,4-dimethyl-2-(4′-(pyridin-4-yl)-[1,1′-biphenyl]-4-yl)-1H-imidazol-5(4H)-one] | 6.75 | 7.40 |  | 
19 | CC1(C)N=C(c2ccc(-c3nc4ccccc4o3)cc2)N(C[C@@H]2CCN(C(=O)C3CC3)C2)C1=O [Compound 11, (R)-2-(4-(benzo[d]oxazol-2-yl)phenyl)-1-((1-(cyclopropanecarbonyl)pyrrolidin-3-yl)methyl)-4,4-dimethyl-1H-imidazol-5(4H)-one] | 5.41 | 6.20 |  | 
20 | Cn1ncc2cc(-c3ccc(C4=NC(C)(C)C(=O)N4CC4CN(C(=O)C5(O)CC5)C4)c(F)c3)ccc21 [Compound 78, 2-(2-fluoro-4-(1-methyl-1H-indazol-5-yl)phenyl)-1-((1-(1-hydroxycyclopropanecarbonyl)azetidin-3-yl)methyl)-4,4-dimethyl-1H-imidazol-5(4H)-one] | 6.19 | 6.61 |  | 
21 | Cn1ncc2cc(-c3ccc(C4=NC(C)(C)C(=O)N4C[C@@H]4CCN(C(=O)C5CC5)C4)cc3)ccc21 [Compound 2, (R)-1-((1-(cyclopropanecarbonyl)pyrrolidin-3-yl)methyl)-4,4-dimethyl-2-(4-(1-methyl-1H-indazol-5-yl)phenyl)-1H-imidazol-5(4H)-one] | 6.15 | 6.85 |  | 

— patent US9718813B2, “Imidazolin-5-one derivative useful as FASN inhibitors for the treatment of cancer” (Janssen Pharmaceutica, NV, priority 2013, dated 2017)
